The test system of one experiment is hypoxia-inducible endogenous VEGF expression. In words: Hypoxia-inducible endogenous VEGF expression ELISA in HeLa cells, dose-response EC50 (Table 3). The format is cell-based, human. The note with it: Homo sapiens, HeLa, read-out: ELISA EC50 μM. The essentials: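 HeLa cells kept 24-48 h under hypoxia (1% O2, 5% CO2, nitrogen balance) with or without compound, e.g. seven concentrations; secreted VEGF in conditioned medium quantified by ELISA against a standard curve. Parallel Cell Titer Glo viability under identical conditions excludes cytotoxicity.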
In general terms: An ELISA detects its analyte on a solid surface through an enzyme-linked reagent.
For orientation: EC50 means the concentration needed to bring the measured effect to its halfway point. Consider `O=C(Oc1ccc(Cl)cc1)N1CCc2c([nH]c3ccc(Cl)cc23)[C@@H]1c1ccc(Oc2ncc(CN3CCOCC3)s2)cc1` [Compound 1660], for which the EC50 was < 0.008 µM.

With `CN1CCN(Cc2cnc(Oc3ccc([C@H]4c5[nH]c6ccc(Cl)cc6c5CCN4C(=O)Oc4ccc(Cl)cc4)cc3)s2)CC1` [Compound 1661], the EC50 is < 0.008 µM.

With `CC1(C)C(=O)NC(=O)N1CCCOc1ccc(C2c3[nH]c4ccc(Cl)cc4c3CCN2C(=O)Oc2ccc(Cl)cc2)cc1` (centres unmarked) [Compound 1671], the EC50 was < 0.008 µM.

On to `O=C1CN(CCCOc2ccc(C3c4[nH]c5ccc(Cl)cc5c4CCN3C(=O)Oc3ccc(Cl)cc3)cc2)C(=O)N1` (centres unmarked) [Compound 1672], for which the EC50 was < 0.008 µM.

`O=C(Oc1ccc(Cl)cc1)N1CCc2c([nH]c3ccc(Cl)cc23)[C@@H]1c1ccc(OC2CCN(CCN3CCOCC3)CC2)cc1` [Compound 1682]: the EC50 was < 0.008 µM.

Turning to `O=C(OCCN1CCOCC1)N1CCC(Oc2ccc([C@H]3c4[nH]c5ccc(Cl)cc5c4CCN3C(=O)Oc3ccc(Cl)cc3)cc2)CC1` [Compound 1693], the EC50 was < 0.008 µM.

For the compound `CN1CCC(Oc2ccc([C@H]3c4[nH]c5ccc(Cl)cc5c4CCN3C(=O)Oc3ccc(Cl)cc3)cc2)CC1` [Compound 1694], the EC50 is < 0.008 µM.

On to `O=C(Oc1ccc(Cl)cc1)N1CCc2c([nH]c3ccc(Cl)cc23)[C@@H]1c1ccc(OC2CCN(CC[C@H](O)CO)CC2)cc1` [Compound 1703], for which the EC50 lay in the range of 0.2 to 1 µM.

Regarding `O=C(Oc1ccc(Cl)cc1)N1CCc2c([nH]c3ccc(Cl)cc23)[C@@H]1c1ccc(OC2CCN(C[C@H](O)CO)CC2)cc1` [Compound 1704], the EC50 lay within 0.008 to 0.04 µM.

The experiment is the same for the next values; noted with them: Homo sapiens; HeLa cells, hypoxic conditions (1% O2), VEGF ELISA of conditioned media; read-out: ELISA EC50.
Turning to `Cc1ccc(OC(=O)N2CCc3c([nH]c4ccc(Cl)cc34)[C@@H]2c2ccc(OCCC(O)CNC(=O)C(C)C)cc2)cc1` (some centres unmarked) [Compound 1640], the EC50 was < 0.008 µM.

On to `Cc1ccc(OC(=O)N2CCc3c([nH]c4ccc(Cl)cc34)[C@@H]2c2ccc(OCCC(O)CNC(=O)c3ccccn3)cc2)cc1` (some centres unmarked) [Compound 1641], for which the EC50 was < 0.008 µM.

As for `COC(=O)NCC(O)CCOc1ccc([C@H]2c3[nH]c4ccc(Cl)cc4c3CCN2C(=O)Oc2ccc(C)cc2)cc1` (some centres unmarked) [Compound 1642], the EC50 was < 0.008 µM.

Turning to `CCOC(=O)NCC(O)CCOc1ccc([C@H]2c3[nH]c4ccc(Cl)cc4c3CCN2C(=O)Oc2ccc(C)cc2)cc1` (some centres unmarked) [Compound 1643], the EC50 was < 0.008 µM.

`CCCOC(=O)NCC(O)CCOc1ccc([C@H]2c3[nH]c4ccc(Cl)cc4c3CCN2C(=O)Oc2ccc(C)cc2)cc1` (some centres unmarked) [Compound 1644]: the EC50 was < 0.008 µM.

Consider `COCCOC(=O)NCC(O)CCOc1ccc([C@H]2c3[nH]c4ccc(Cl)cc4c3CCN2C(=O)Oc2ccc(C)cc2)cc1` (some centres unmarked) [Compound 1645], for which the EC50 was < 0.008 µM.

With `CCS(=O)(=O)NCC(O)CCOc1ccc([C@H]2c3[nH]c4ccc(Cl)cc4c3CCN2C(=O)Oc2ccc(C)cc2)cc1` (some centres unmarked) [Compound 1646], the EC50 is < 0.008 µM.

As for `Cc1ccc(OC(=O)N2CCc3c([nH]c4ccc(Cl)cc34)[C@@H]2c2ccc(OCCC(O)CNS(=O)(=O)C3CC3)cc2)cc1` (some centres unmarked) [Compound 1647], the EC50 was < 0.008 µM.

On to `CS(=O)(=O)CCCOc1ccc([C@H]2c3[nH]c4ccc(Cl)cc4c3CCN2C(=O)Oc2ccc(Cl)cc2)cc1` [Compound 1648], for which the concentration for a half-maximal effect (EC50) was < 0.008 µM.

On to `C[Si](C)(C)CCS(=O)(=O)N1CCC(Oc2ccc([C@H]3c4[nH]c5ccc(Cl)cc5c4CCN3C(=O)Oc3ccc(Cl)cc3)cc2)CC1` [Compound 1652], for which the EC50 was < 0.008 µM.

Turning to `Cc1cnc(C)c(Oc2ccc([C@H]3c4[nH]c5ccc(Cl)cc5c4CCN3C(=O)Oc3ccc(Cl)cc3)cc2)n1` [Compound 1658], the EC50 is < 0.008 µM.

Take `Cc1nccnc1Oc1ccc([C@H]2c3[nH]c4ccc(Cl)cc4c3CCN2C(=O)Oc2ccc(Cl)cc2)cc1` [Compound 1659]: the EC50 was < 0.008 µM.

With `CCOC(=O)NC[C@H](O)COc1ccc([C@H]2c3[nH]c4ccc(Cl)cc4c3CCN2C(=O)Oc2ccc(F)cc2)cc1` [Compound 1663], the EC50 was < 0.008 µM.

Consider `CCOC(=O)NC[C@@H](O)COc1ccc([C@H]2c3[nH]c4ccc(Cl)cc4c3CCN2C(=O)Oc2ccc(F)cc2)cc1` [Compound 1664], for which the 50% effective concentration (EC50) is < 0.008 µM.

As to `CCCOC(=O)NCC(O)CCOc1ccc([C@H]2c3[nH]c4ccc(Cl)cc4c3CCN2C(=O)Oc2ccc(Cl)cc2)cc1` (some centres unmarked) [Compound 1666], the half-maximal effective concentration (EC50) was < 0.008 µM.

In the case of `CS(=O)(=O)NCC(O)CCOc1ccc([C@H]2c3[nH]c4ccc(Cl)cc4c3CCN2C(=O)Oc2ccc(Cl)cc2)cc1` (some centres unmarked) [Compound 1667], the EC50 is < 0.008 µM.

Take `Cc1ccc(OC(=O)N2CCc3c([nH]c4ccc(Cl)cc34)[C@@H]2c2ccc(OCCC(O)CNS(C)(=O)=O)cc2)cc1` (some centres unmarked) [Compound 1668]: the EC50 lay within 0.008 to 0.04 µM.

On to `N#CCOc1ccc([C@H]2c3[nH]c4ccc(Cl)cc4c3CCN2C(=O)Oc2ccc(Cl)cc2)cc1` [Compound 1669], for which the EC50 is < 0.008 µM.

Regarding `CN1C(=O)CN(CCCOc2ccc(C3c4[nH]c5ccc(Cl)cc5c4CCN3C(=O)Oc3ccc(Cl)cc3)cc2)C1=O` (centres unmarked) [Compound 1673], the EC50 was < 0.008 µM.

`O=C(Oc1ccc(Cl)cc1)N1CCc2c([nH]c3ccc(Cl)cc23)[C@@H]1c1ccc(OCc2cn(C3OC(CO)C(O)C(O)C3O)nn2)cc1` (some centres unmarked) [Compound 1674]: the EC50 was 0.2 to 1 µM.

For `CC(=O)OCC1OC(n2cc(COc3ccc([C@H]4c5[nH]c6ccc(Cl)cc6c5CCN4C(=O)Oc4ccc(Cl)cc4)cc3)nn2)C(OC(C)=O)C(OC(C)=O)C1OC(C)=O` (some centres unmarked) [Compound 1675], the EC50 was 0.04 to 0.2 µM.

Take `O=C(Oc1ccc(Cl)cc1)N1CCc2c([nH]c3ccc(Cl)cc23)[C@@H]1c1ccc(OCCc2cn(C3OC(CO)C(O)C(O)C3O)nn2)cc1` (some centres unmarked) [Compound 1676]: the EC50 is > 1 µM.

With `CC(=O)OCC1OC(n2cc(CCOc3ccc([C@H]4c5[nH]c6ccc(Cl)cc6c5CCN4C(=O)Oc4ccc(Cl)cc4)cc3)nn2)C(OC(C)=O)C(OC(C)=O)C1OC(C)=O` (some centres unmarked) [Compound 1677], the EC50 is 0.04 to 0.2 µM.

For the compound `O=C(Oc1ccc(Cl)cc1)N1CCc2c([nH]c3ccc(Cl)cc23)[C@@H]1c1ccc(OC2CCN(c3ncccn3)CC2)cc1` [Compound 1681], the EC50 was < 0.008 µM.

Consider `O=C(Oc1ccc(Cl)cc1)N1CCc2c([nH]c3ccc(Cl)cc23)[C@@H]1c1ccc(OC2OC(CO)C(O)C(O)C2O)cc1` (some centres unmarked) [Compound 1695], for which the EC50 lay in the range of 0.2 to 1 µM.

Take `O=C(Oc1ccc(Cl)cc1)N1CCc2c([nH]c3ccc(Cl)cc23)[C@@H]1c1ccc(Oc2ccc(Cl)nn2)cc1` [Compound 1698]: the EC50 was < 0.008 µM.

Regarding `O=C(Oc1ccc(Cl)cc1)N1CCc2c([nH]c3ccc(Cl)cc23)[C@@H]1c1ccc(OC2COC2)cc1` [Compound 1701], the EC50 was < 0.008 µM.

With `CS(=O)(=O)Cc1cnc(Oc2ccc([C@H]3c4[nH]c5ccc(Cl)cc5c4CCN3C(=O)Oc3ccc(Cl)cc3)cc2)s1` [Compound 1702], the EC50 was < 0.008 µM.

The next experiment relates to HT1080 cells. Kind of experiment: Cell cycle analysis by propidium iodide flow cytometry in HT1080 cells (percent cells in S-phase, Table 24). The format is cell-based, human. The note with it: HT1080 cells, 100 nM, 18 hours, normoxic; DMSO control […]. On the procedure:
Experimental Design. […] After treatment, cells were trypsinized, and stained with propidium iodide (PI) dye to measure DNA content of individual cells by flow cytometry. Output comprised histograms showing relative DNA content in 10,000 cells.
While compounds which cause greater than 20% of the cells to accumulate in S-phase at 100 nM are considered active, a larger percentage of cells may be accumulated in S-phase at lower doses depending on the Compound, as shown in FIG. 12 for example.
A general note: Flow cytometry measures light scatter and fluorescence of single cells or particles in a stream.
As for `COc1ccc(C2c3[nH]c4ccc(Cl)cc4c3CCN2C(=O)Oc2ccc(Cl)cc2)cc1` (centres unmarked), the “% Cells In S-Phase” value stood at 15.3%.

On to `O=C(Oc1ccc(F)cc1)N1CCc2c([nH]c3ccc(Cl)cc23)[C@@H]1c1ccc(OCCCn2ccnn2)cc1`, for which the “% Cells In S-Phase” value is 25.7%.

Regarding `COc1ccc(OC(=O)N2CCc3c([nH]c4ccc(Br)cc34)[C@H]2c2ccc(Cl)cc2)cc1`, the “% Cells In S-Phase” value is given as 16.5%.

Take `COc1ccc([C@@H]2c3[nH]c4ccc(Cl)cc4c3CCN2C(=O)Oc2ccc(Cl)cc2)cc1`: the “% Cells In S-Phase” value is on record as 16.8%.

For the compound `O=C(Oc1ccc(F)cc1)N1CCc2c([nH]c3ccc(Cl)cc23)[C@H]1c1ccc(OCCCn2ccnn2)cc1`, the “% Cells In S-Phase” value is given as 16.4%.

With `O=C(Oc1ccc(Cl)cc1)N1CCc2c([nH]c3ccc(Cl)cc23)C1c1ccc(OCCN2CCCCC2)cc1` (centres unmarked), the “% Cells In S-Phase” value is 16.8%.

Consider `C=CCOc1ccc([C@@H]2c3[nH]c4ccc(Cl)cc4c3CCN2C(=O)Oc2ccc(Cl)cc2)cc1`, for which the “% Cells In S-Phase” value is 17.9%.

As to `COc1ccc([C@H]2c3[nH]c4ccc(Cl)cc4c3CCN2C(=O)Oc2ccc(Cl)cc2)cc1` [drawing 526], the “% Cells In S-Phase” value worked out at 26.1%.

Turning to `COc1ccc(OC(=O)N2CCc3c([nH]c4ccc(Br)cc34)[C@@H]2c2ccc(Cl)cc2)cc1` [drawing 527], the “% Cells In S-Phase” value turned out to be 26.4%.

Consider `O=C(Oc1ccc(Cl)cc1)N1CCc2c([nH]c3ccc(Cl)cc23)[C@@H]1c1ccc(OCC[C@H](O)CO)cc1` [drawing 529], for which the “% Cells In S-Phase” value is on record as 20.0%.

On to `C=CCOc1ccc([C@H]2c3[nH]c4ccc(Cl)cc4c3CCN2C(=O)Oc2ccc(Cl)cc2)cc1` [drawing 533], for which the “% Cells In S-Phase” value is listed as 17.2%.

For `O=C(Oc1ccc(Cl)cc1)N1CCc2c([nH]c3ccc(Cl)cc23)C1c1ccc(OCCN2CCOCC2)cc1` (centres unmarked) [drawing 535], the “% Cells In S-Phase” value is listed as 16.4%.

Regarding `O=C(Oc1ccc(F)cc1)N1CCc2c([nH]c3ccc(Cl)cc23)[C@@H]1c1ccc(OCC[C@H](O)CO)cc1` [drawing 537], the “% Cells In S-Phase” value is recorded as 20.6%.

As to `O=C(Oc1ccc(Cl)cc1)N1CCc2c([nH]c3ccc(Cl)cc23)[C@H]1c1ccc(OCC[C@H](O)CO)cc1` [drawing 538], the “% Cells In S-Phase” value turned out to be 17%.

The experiment is the same for the next values; noted with them: tumor cells; data not shown.
With `NC(Cn1ccc(=O)c(O)c1)C(=O)O` (centres unmarked) [mimosine, reference compound], the “Effect on the cell cycle” value is recorded as “does not delay or prolong the cell cycle”.

Another experiment relates to soluble VEGF121 and VEGF165 isoforms. In words: VEGF inhibition EC50 by ELISA in the same human tumor cell lines (Table 25). The class given is cell-based. The note with it: tumor cells; data not shown. As for the experimental part:
Results. […] The conditioned media were collected and assayed by ELISA for soluble VEGF121 and VEGF165 isoforms (as described in Section 9.1.1.1); results were calculated as percentage inhibition relative to vehicle treated controls. EC50 values were calculated from the concentration response curves.
On to `NC(Cn1ccc(=O)c(O)c1)C(=O)O` (centres unmarked) [mimosine, reference compound], for which the “Effect on VEGF production” value was “does not delay or prolong the cell cycle or reduce VEGF production”.

These data come from patent US20120157401A1, “METHODS FOR TREATING NEUROFIBROMATOSIS” (PTC Therapeutics, Inc., priority 2009, published 2012).
